For assay [1], the target named is T1, activated human blood coagulation factor X (Homo sapiens, UniProt P00742).
T1 construct: purchased Enzyme Research Co
The assay can be described thus: Determination of activity of inhibiting the activated blood-coagulation factor X (chromogenic substrate, initial rate). To be noted: negative logarithm of concentration inhibiting 50% of initial rate, tris hydrochloride buffer pH 8.4, room temperature; for IC50: read-out: Activity of inhibiting activated blood coagulation factor X (pIC50) (converted). The class given is biochemical. The protocol: Determination of Activity of inhibiting the Activated Blood-coagulation Factor X
130 μl of 100 mM tris hydrochloride buffer adjusted to pH 8.4 was added to 10 μl of an aqueous solution of a compound to be tested. Then 10 μl of a 0.5 unit/ml solution of activated human blood coagulation factor X (a product of Enzyme Research Co.) in tris hydrochloride buffer of pH 8.4 was added to the resultant mixture. After the incubation at room temperature for 10 minutes, 50 μl of a solution of N-benzoyl-L-isoleucyl-L-glutamyl-glycyl-L-arginyl-P-nitroanilide hydrochloride (a product of Peptide Institute Inc.) adjusted to 0.8 mM with tris hydrochloride (pH 8.4) was added thereto. The a absorbance was determined and then the initial reaction rate was determined. A control was prepared in the same manner as that described above except that the solution of the compound to be tested was replaced with 10 μl of tris hydrochloride buffer adjusted to pH 8.4. The absorbance was determined with MICROPLATE READER Model 3550-UV (a product of BIO RAD) at a wave length of 405 nm at intervals of 15 seconds for 16 minutes.

The subject of the next assay is blood plasma. The assay can be described thus: Determination of blood anticoagulating activity by prothrombin time (PT) determination method. The class given is biochemical, human. As to conditions: negative logarithm of concentration which elongated PT of the control to twice as long; blood plasma of healthy people. The protocol:
Determination of Blood Anticoagulating Activity
The blood anticoagulating activity was determined by a prothrombin time (PT) determination method. The PT was determined as follows: The blood was taken from healthy people. 3.8% aqueous trisodium citrate solution was added to the blood in a volume ratio of 1:10. The blood plasma was separated by the centrifugation. 5 μl of DMSO solution containing a test compound was added to 45 μl of the blood plasma. After the incubation apt room temperature for 2 minutes, a test tube containing the blood plasma solution was placed in Sysmex CA-3000 fully automatic blood coagulation determination device (a product of Toa Medical Electronics Co., Ltd), and incubated at 37° C. for 3 minutes. 100 μl of Sysmex PT II (rabbit brain tissue thromboplastin, 13.2 mM calcium chloride; a product of Toa Medical Electronics Co., Ltd) was fed into the test tube. PT was automatically determined with the device. A sample containing 5 μl of DMSO in place of the solution of the test compound was used as the control. The negative logarithm (pPT2) of the concentration of the test compound which elongated PT of the control to the twice as long was determined, and employed as the index of the blood anticoagulating activity.

The target of the next assay is T2, human thrombin (Homo sapiens, UniProt P00734).
T2 construct: solution of human thrombin (a product of SIGMA Co.); purchased SIGMA Co
Put plainly: Determination of thrombin-inhibiting activity (chromogenic substrate S-2238, initial rate). Type of assay: biochemical. To be noted: negative logarithm of concentration inhibiting 50% of initial rate, tris hydrochloride buffer pH 8.4, room temperature; for IC50: read-out: Thrombin-inhibiting activity (pIC50) (converted). The protocol:
Determination of Thrombin-inhibiting Activity
130 μL of 100 mM tris hydrochloride buffer adjusted to pH 8.4 was added to 10 μl of an aqueous solution of a test compound. Then 10 μl of a solution of human thrombin (a product of SIGMA Co.) adjusted to 2 units/ml with tris hydrochloride buffer of pH 8.4 was added to the resultant mixture. After the incubation at room temperature for 10 minutes, 50 μl of a solution of D-phenylalanine-L-pipecolyl-L-arginine-P-nitroanilide dihydrochloride (S-2238; a product of Daiichi Kagaku Yakuhin Co.) adjusted to 0.4 mM with tris hydrochloride buffer of pH 8.4 was added thereto. The absorbance was determined and then the initial reaction rate was determined. A control was prepared in the same manner as that described above except that the solution of the compound to be tested was replaced with 10 μl of tris hydrochloride buffer adjusted to pH 8.4. The absorbance was determined with MICROPLATE READER Model 3550-UV (a product of BIO RAD) at a wave length of 405 nm at intervals of 15 seconds for 16 minutes. The negative logarithm (pIC50) of a concentration of the test compound which inhibits 50% of the activity (initial rate) of the thrombin in the absence of the test compound was determined, and employed as the index of the activity of inhibiting thrombin.

T1 sequence (P00742 235-488 limits assumed): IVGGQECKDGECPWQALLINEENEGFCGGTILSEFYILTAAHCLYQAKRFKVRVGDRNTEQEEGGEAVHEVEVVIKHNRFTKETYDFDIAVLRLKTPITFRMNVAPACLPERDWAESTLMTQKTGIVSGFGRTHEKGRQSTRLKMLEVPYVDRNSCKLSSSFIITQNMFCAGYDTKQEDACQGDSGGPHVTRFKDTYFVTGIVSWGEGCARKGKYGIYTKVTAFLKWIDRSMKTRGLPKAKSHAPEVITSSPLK
T1 sequence (P00742 41-179 partner limits assumed): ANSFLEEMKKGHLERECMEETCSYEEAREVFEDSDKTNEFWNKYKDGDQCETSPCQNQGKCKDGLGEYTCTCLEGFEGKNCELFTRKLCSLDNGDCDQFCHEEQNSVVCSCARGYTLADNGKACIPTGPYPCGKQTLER

On to `CC(C)N1CCN(C(=O)CCc2ccc3c(c2)N(Cc2ccc(C(=O)N4CC=CC4)cc2)C(=O)CN(C(=O)c2ccc(Cl)cc2)C3)CC1.O=C(O)C(F)(F)F` [Compd. of Ex. 115, 4-(4-chlorobenzoyl)-1-[4-(2,5-dihydro-1H-pyrrol-1-ylcarbonyl)benzyl]-8-[3-(4-isopropyl-1-piperazinyl)-3-oxo-propyl]-1,3,4,5-tetrahydrobenzo[e][1,4]diazepin-2-on trifluoroacetate], for which the values for the IC50 (in assay [1]; at human thrombin) were 63.1 nM and 39800 nM, respectively. Besides, in the assay with blood plasma, the “Human blood anticoagulating activity (pPT2)” value was found to be 5.4.

As for `CN1CCN=C1c1ccc(CN2C(=O)CN(C(=O)c3ccc(Cl)cc3)Cc3c(Cl)cccc32)cc1.O=C(O)C(F)(F)F` [Compd. of Ex. 122, 6-chloro-4-(4-chlorobenzoyl)-1-[4-(1-methyl-4,5-dihydro-1H-imidazol-2-yl)benzyl]-1,3,4,5-tetrahydrobenzo[e][1,4]-diazepin-2-on trifluoroacetate], the results for the IC50 (in assay [1]; on human thrombin) were 50.1 nM and over 100000 nM, respectively. Besides, the “Human blood anticoagulating activity (pPT2)” value with blood plasma was 5.6.

On to `CN1CCN=C1c1ccc(CN2C(=O)CN(C(=O)c3ccc(Cl)cc3)Cc3ccccc32)cc1.O=C(O)C(F)(F)F` [Compd. of Ex. 125, 4-(4-chlorobenzoyl)-1-[4-(1-methyl-4,5-dihydro-1H-imidazol-2-yl)benzyl]-1,3,4,5-tetrahydrobenzo[e][1,4]-diazepin-2-on trifluoroacetate], for which the figures for the IC50 (in assay [1]; on human thrombin) were 251 nM and over 100000 nM, respectively. The “Human blood anticoagulating activity (pPT2)” value in the assay with blood plasma was 5.6.

In the case of `CC(C)N1CCC(CN2C(=O)CN(C(=O)c3ccc(Cl)cc3)Cc3ccccc32)CC1.O=C(O)C(F)(F)F` [Compd. of Ex. 142, 4-(4-chlorobenzoyl)-1-[(1-isopropyl-4-piperidinyl)methyl]-1,3,4,5-tetrahydrobenzo[e][1,4]diazepin-2-on trifluoroacetate], the IC50 was 794 nM in assay [1] and 39800 nM on human thrombin. Also, in the assay with blood plasma, the “Human blood anticoagulating activity (pPT2)” value was found to be 5.5.

As to `O=C(O)C(F)(F)F.O=C(c1ccc(Cl)cc1)N1CC(=O)N(CC2CCN(C3CCCCC3)CC2)c2ccccc2C1` [Compd. of Ex. 143, 4-(4-chlorobenzoyl)-1-[(1-cyclohexyl-4-piperidinyl)methyl]-1,3,4,5-tetrahydrobenzo[e][1,4]diazepin-2-on mono(trifluoroacetate)], the results for the IC50 (in assay [1]; on human thrombin) were 316 nM and 63100 nM, respectively. Further, the “Human blood anticoagulating activity (pPT2)” value with blood plasma is reported as 5.4.

For `CN1CCN=C1c1ccc(CN2C(=O)CN(C(=O)c3ccc(Cl)cc3)Cc3ccc(CCC(=O)N4CCOCC4)cc32)cc1.O=C(O)C(F)(F)F` [Compd. of Ex. 144, 4-(4-chlorobenzoyl)-1-[4-(1-methyl-4,5-dihydro-1H-imidazol-2-yl)benzyl]-8-[3-(4-morpholinyl)-3-oxopropyl]-1,3,4,5-tetrahydrobenzo[e][1,4]diazepin-2-on mono(trifluoroacetate)], the figures for the IC50 (in assay [1]; on human thrombin) were 200 nM and 79400 nM, respectively. Besides, the “Human blood anticoagulating activity (pPT2)” value in the assay with blood plasma was 5.6.

Turning to `CC(C)N1CCC(CCN2C(=O)CN(C(=O)c3ccc(Cl)cc3)Cc3ccccc32)CC1.O=C(O)C(F)(F)F` [Compd. of Ex. 169, 4-(4-chlorobenzoyl)-1-[2-(1-isopropyl-4-piperidinyl)ethyl]-1,3,4,5-tetrahydrobenzo[e][1,4]diazepin-2-on trifluoroacetate], the IC50 is 316 nM in assay [1] and over 100000 nM on human thrombin. In addition, the “Human blood anticoagulating activity (pPT2)” value in the assay with blood plasma is on record as 5.4.

Take `CN1CC[N+](C)=C1N1CCC(CCN2C(=O)CN(C(=O)c3ccc(Cl)cc3)Cc3ccccc32)CC1.O=C([O-])C(F)(F)F` [Compd. of Ex. 178, 4-(4-chlorobenzoyl)-1-[2-(1-(1,3-dimethyl-4,5-dihydro-1H-imidazo-3-ium-2-yl)-4-piperidinyl)ethyl]-1,3,4,5-tetra-hydrobenzo[e][1,4]diazepin-2-on trifluoroacetate]: in assay [1], the “Activity of inhibiting activated blood coagulation factor X (pIC50)” value came to 7.1. For the same compound, the “Human blood anticoagulating activity (pPT2)” value in the assay with blood plasma worked out at 5.8. For the same compound, on human thrombin, the “Thrombin-inhibiting activity (pIC50)” value is listed as under 4.0.

As to `O=C(O)C(F)(F)F.O=C(c1ccc(CN2C(=O)CN(C(=O)c3ccc(Cl)cc3)Cc3ccccc32)nc1)N1CC=CC1` [Compd. of Ex. 181, 4-(4-chlorobenzoyl)-1-[(5-(2,5-dihydro-1H-pyrrol-1-ylcarbonyl)-2-pyridinyl)methyl]-1,3,4,5-tetrahydrobenzo[e][1,4]-diazepin-2-on trifluoroacetate], the IC50 in assay [1] is 79.4 nM; at human thrombin, over 100000 nM. For the same compound, the “Human blood anticoagulating activity (pPT2)” value with blood plasma came to 5.3.

Turning to `CN1CCN=C1c1ccc(CN2C(=O)CN(C(=O)c3ccc(Cl)cc3)Cc3ccc(C(=O)O)cc32)cc1.O=C(O)C(F)(F)F` [Compd. of Ex. 203, 4-(4-chlorobenzoyl)-2-oxo-1-[4-(1-methyl-4,5-dihydro-1H-imidazol-2-yl)benzyl]-2,3,4,5-tetrahydro-1H-benzoyl[e][1,4]-diazepine-8-carboxylic acid trifluoroacetate], the “Activity of inhibiting activated blood coagulation factor X (pIC50)” value in assay [1] is given as 7.1. Besides, the “Human blood anticoagulating activity (pPT2)” value in the assay on blood plasma amounted to 5.5. Also, the “Thrombin-inhibiting activity (pIC50)” value at human thrombin is reported as under 4.0.

Consider `CCOC(=O)c1ccc2c(c1)N(Cc1ccc(C3=NCCN3C)cc1)C(=O)CN(C(=O)c1ccc(Cl)cc1)C2.O=C(O)C(F)(F)F` [Compd. of Ex. 204, ethyl 4-(4-chlorobenzoyl)-2-oxo-1-[4-(1-methyl-4,5-dihydro-1H-imidazol-2-yl)benzyl]-2,3,4,5-tetrahydro-1H-benzoyl[e][1,4]diazepine-8-carboxylate trifluoroacetate], for which the “Activity of inhibiting activated blood coagulation factor X (pIC50)” value in assay [1] is listed as 6.5. Besides, the “Human blood anticoagulating activity (pPT2)” value with blood plasma turned out to be 5.2. The “Thrombin-inhibiting activity (pIC50)” value at human thrombin is listed as under 4.0.

For `CCOC(=O)c1ccc2c(c1)N(Cc1ccc(C3=[N+](C)CCN3C)cc1)C(=O)CN(C(=O)c1ccc(Cl)cc1)C2.O=C([O-])C(F)(F)F` [Compd. of Ex. 206, 2-[4-((4-(4-chlorobenzoyl)-8-(ethoxycarbonyl)-2-oxo-2,3,4,5-tetrahydro-1H-1,4-benzodiazepin-1-yl)methyl)phenyl]-1,3-dimethyl-4,5-dihydro-1H-imidazol-3-ium trifluoroacetate], the IC50 was 200 nM in assay [1] and over 100000 nM at human thrombin. In the assay on blood plasma, the “Human blood anticoagulating activity (pPT2)” value came out at 5.5.

As for `CN1CC[N+](C)=C1c1ccc(CN2C(=O)CN(C(=O)c3ccc(Cl)cc3)Cc3c(Cl)cccc32)cc1.O=C([O-])C(F)(F)F` [Compd. of Ex. 207, 6-chloro-4-(4-chlorobenzoyl)-1-[4-(1,3-dimethyl-4,5-dihydro-1H-imidazol-3-ium-2-yl)benzyl]-1,3,4,5-tetrahydro-benzo[e][1,4]diazepin-2-on trifluoroacetate], the IC50 in assay [1] was 31.6 nM; at human thrombin it was over 100000 nM. Also, the “Human blood anticoagulating activity (pPT2)” value in the assay on blood plasma was determined as 5.7.
